In patent publication US20080300180A1, “Growth Hormone Secretagogue Receptor 1A Ligands” (Gastrotech Pharma A/S, priority 2004, published 2008):
“Also recorded” adds a separate entry of the source. Square brackets hold non-standard residues; d marks the D form. Ends that are not written are not given here. * marks the point of attachment. Octanoyl = CCCCCCCC(=O)*; GABA = NCCCC(=O)O

Test: Preclinical study evaluating the long-term efficacy of subcutaneous ghrelin, GTP-5 and GTP-6 in rats (weight gain, food intake, fat pads)
Assay type: in vivo, rat
Settings: for Total weight increase in the animals, Mean ± S.D.: Sprague-Dawley rats, n=8, s.c. twice daily; for Body weight gain compared with saline group (in words) / Cumulative food intake compared with control group (in words) / Epididymal fat depots (fat pad weight, in words) / Subcutaneous fat depots (fat pad weight, in words): rats, s.c. twice daily
Method: 48 (Sprauge-Dawley (SD) IGS BR) rats were used in the study. The animals were caged individually and fed a commercial diet, R34, from Lactamin AB, Sweden. They were given free access to water. All animals were allowed an acclimatisation period of a minimum of 7 days prior to the commencement of the experiment. The animals were separated in six groups (n=8) and treated twice daily with subcutaneous injections as follows: • Group 1. Control (NaCl). • Group 2. Positive control Ghrelin 200 μg/kg body weight/injection. • Group 3. GTP-5 50 μg/kg body weight/injection. • Group 4. GTP-5 200 μg/kg body weight/injection. • Group 5. GTP-6 50 μg/kg body weight/injection. • Group 6. GTP-6 200 μg/kg body weight/injection.
The weight of the animals, and their food and water were recorded daily. The animals were checked twice daily for change in food intake, activity and fur quality as signs of a change in general health status.
Pre-dose, day 7 and 14 the animals were anaesthetized with Isofluran and blood was collected through the orbital plexus. The blood was analysed for clinical chemistry (ASAT, ALAT, bilirubin, albumin, creatinine, LD, GGT, potassium, sodium, glucose, IgF-1, insulin and leptin) and haematology (white blood cells, red blood cells, haemoglobin, platelets and haematokrit). After blood sampling the animals were killed and epididymal, subcutaneous and retroperitoneal fat pads were dissected and weighed.

[1] = 200 μg/kg body weight/injection
[2] = 200 μg/kg body weight/injection (high dose)
[3] = 200 μg/kg body weight/injection (high dose), listed as ghrelin
[4] = 50 μg/kg body weight/injection (low dose)

Substance | Total weight increase in the animals, Mean ± S.D. [1] [g] | Body weight gain compared with saline group (in words) [2] | Cumulative food intake compared with control group (in words) [2] | Epididymal fat depots (fat pad weight, in words) [2] | Subcutaneous fat depots (fat pad weight, in words) [2] | Body weight gain compared with saline group (in words) [3] | Cumulative food intake compared with control group (in words) [3] | Total weight increase in the animals, Mean ± S.D. (50 μg/kg body weight/injection) [g] | Body weight gain compared with saline group (in words) [4] | Cumulative food intake compared with control group (in words) [4] | Subcutaneous fat depots (fat pad weight, in words) [4]
Ghrelin: Positive control; 28 amino acid peptide hormone acylated on serine 3, endogenous GHS-R1a ligand (GSS(Octanoyl)FLSPEHQRVQQRKESKKPPAKLQPR; UniProt Q9UBU3 24-51, looked up) [reference compound] | 92.1 ± 9.0 | associated with increases | associated with increases | significant increase | significant increase; also recorded: induced an increase | gained significantly more weight than the saline group | higher cumulative food intake |  |  |  | 
GABAS(CO-C7 H15)FLSPEHQRVQQRKESKKPPAKLQPR ([GABA]S(Octanoyl)FLSPEHQRVQQRKESKKPPAKLQPR) [GTP-5, 27 amino acids long, octanoyl on the serine-3 sidechain (GABA = 4-aminobutyric acid)] | 78.2 ± 16.3 | higher weight gains than saline; also recorded: associated with increases | tended to eat more than the control group; also recorded: associated with increases | significant increase | significant increase; also recorded: induced an increase |  |  | 75.4 ± 14.3 | higher weight gains than saline; also recorded: associated with increases | associated with increases | 
bASS(CO-C7 H15)FLSPEHQRVQQRKESKKPPAKLQPR (XSSFLSPEHQRVQQRKESKKPPAKLQPR; N-terminal beta-alanine; octanoyl on Ser3) [GTP-6, 28 amino acids long, octanoyl group on serine-3 sidechain (bA = beta-alanine)] | 77.8 ± 10.2 | higher weight gains than saline; also recorded: associated with increases | tended to eat more than the control group; also recorded: associated with increases |  | significant increase; also recorded: induced an increase |  |  | 79.3 ± 10.0 | higher weight gains than saline; also recorded: associated with increases | tended to eat more than the control group; also recorded: associated with increases | significant increase; also recorded: induced an increase
